What was measured:
Assay type in all cases: binding
Set-up in all cases: KINOMEscan: ABL1(F317L)-phosphorylated / KINOMEscan: ABL1(H396P)-nonphosphorylated / KINOMEscan: ABL1(H396P)-phosphorylated / KINOMEscan: ABL1(M351T)-phosphorylated / KINOMEscan: ABL1(T315I)-phosphorylated / KINOMEscan: ABL1-nonphosphorylated / KINOMEscan: ABL1-phosphorylated / KINOMEscan: ACVR2A / KINOMEscan: ACVR2B / KINOMEscan: ADCK3 / KINOMEscan: ADCK4 / KINOMEscan: AKT1 / KINOMEscan: AKT3 / KINOMEscan: ALK / KINOMEscan: ARK5 / KINOMEscan: AURKA / KINOMEscan: AURKC / KINOMEscan: BIKE / KINOMEscan: BMPR1A / KINOMEscan: BMPR1B / KINOMEscan: BMX / KINOMEscan: BRK / KINOMEscan: BRSK1 / KINOMEscan: BRSK2 / KINOMEscan: CAMK1 / KINOMEscan: CAMK1D / KINOMEscan: CAMK1G / KINOMEscan: CAMK2A / KINOMEscan: CAMK2B / KINOMEscan: AAK1 / KINOMEscan: CAMK2D / KINOMEscan: CAMK2G / KINOMEscan: ABL1(F317I)-nonphosphorylated / KINOMEscan: ABL1(F317I)-phosphorylated / KINOMEscan: ABL1(F317L)-nonphosphorylated: unit: % Ctrl
Settings in all cases: Compound Concentration 10 µM
[1] = target: T1, panel of 442 kinases (Homo sapiens, UniProt P00519, F317L)
T1 construct: purchased KINOMEscan
Text: (§1) We assessed the selectivity of members of this scaffold using the KINOMEscan methodology across a near comprehensive panel of 442 kinases [[18,27]].

[2] = target: T2, panel of 442 kinases (Homo sapiens, UniProt P48729)
T2 construct: purchased KINOMEscan
Text: as §1

[3] = target: T3, panel of 442 kinases (Homo sapiens, UniProt P49761)
T3 construct: purchased KINOMEscan
Text: as §1

[4] = target: T4, panel of 442 kinases (Homo sapiens, UniProt P80192)
T4 construct: purchased KINOMEscan
Text: as §1

T1 sequence (P00519 whole entry F317L): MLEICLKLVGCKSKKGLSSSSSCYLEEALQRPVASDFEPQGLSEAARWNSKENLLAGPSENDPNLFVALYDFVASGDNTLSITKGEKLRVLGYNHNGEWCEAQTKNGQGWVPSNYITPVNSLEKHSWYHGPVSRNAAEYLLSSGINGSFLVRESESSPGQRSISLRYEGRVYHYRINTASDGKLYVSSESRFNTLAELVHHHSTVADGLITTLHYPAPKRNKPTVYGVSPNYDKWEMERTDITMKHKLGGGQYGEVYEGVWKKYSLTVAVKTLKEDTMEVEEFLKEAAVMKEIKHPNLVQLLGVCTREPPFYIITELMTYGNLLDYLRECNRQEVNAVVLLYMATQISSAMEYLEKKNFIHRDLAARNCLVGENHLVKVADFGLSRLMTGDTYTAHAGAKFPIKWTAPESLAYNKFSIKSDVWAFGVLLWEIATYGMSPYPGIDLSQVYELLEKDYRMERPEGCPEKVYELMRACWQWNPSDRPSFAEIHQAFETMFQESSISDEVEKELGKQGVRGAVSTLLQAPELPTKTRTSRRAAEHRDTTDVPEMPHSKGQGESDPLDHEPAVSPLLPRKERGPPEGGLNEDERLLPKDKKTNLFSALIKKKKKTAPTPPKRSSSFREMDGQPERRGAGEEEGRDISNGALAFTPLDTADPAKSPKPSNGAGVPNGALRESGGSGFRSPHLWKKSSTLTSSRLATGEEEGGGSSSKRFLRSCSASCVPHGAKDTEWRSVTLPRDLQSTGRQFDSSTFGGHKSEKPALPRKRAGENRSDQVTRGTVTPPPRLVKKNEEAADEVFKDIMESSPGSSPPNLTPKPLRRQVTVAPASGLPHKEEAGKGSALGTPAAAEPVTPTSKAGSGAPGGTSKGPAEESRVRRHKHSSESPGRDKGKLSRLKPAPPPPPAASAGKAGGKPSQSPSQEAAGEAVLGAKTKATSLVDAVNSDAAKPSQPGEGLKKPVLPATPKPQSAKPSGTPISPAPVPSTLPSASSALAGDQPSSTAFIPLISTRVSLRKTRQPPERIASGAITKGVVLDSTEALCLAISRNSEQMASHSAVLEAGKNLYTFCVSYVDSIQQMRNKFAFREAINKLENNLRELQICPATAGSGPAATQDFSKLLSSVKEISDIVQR
T4 sequence (P80192 whole entry): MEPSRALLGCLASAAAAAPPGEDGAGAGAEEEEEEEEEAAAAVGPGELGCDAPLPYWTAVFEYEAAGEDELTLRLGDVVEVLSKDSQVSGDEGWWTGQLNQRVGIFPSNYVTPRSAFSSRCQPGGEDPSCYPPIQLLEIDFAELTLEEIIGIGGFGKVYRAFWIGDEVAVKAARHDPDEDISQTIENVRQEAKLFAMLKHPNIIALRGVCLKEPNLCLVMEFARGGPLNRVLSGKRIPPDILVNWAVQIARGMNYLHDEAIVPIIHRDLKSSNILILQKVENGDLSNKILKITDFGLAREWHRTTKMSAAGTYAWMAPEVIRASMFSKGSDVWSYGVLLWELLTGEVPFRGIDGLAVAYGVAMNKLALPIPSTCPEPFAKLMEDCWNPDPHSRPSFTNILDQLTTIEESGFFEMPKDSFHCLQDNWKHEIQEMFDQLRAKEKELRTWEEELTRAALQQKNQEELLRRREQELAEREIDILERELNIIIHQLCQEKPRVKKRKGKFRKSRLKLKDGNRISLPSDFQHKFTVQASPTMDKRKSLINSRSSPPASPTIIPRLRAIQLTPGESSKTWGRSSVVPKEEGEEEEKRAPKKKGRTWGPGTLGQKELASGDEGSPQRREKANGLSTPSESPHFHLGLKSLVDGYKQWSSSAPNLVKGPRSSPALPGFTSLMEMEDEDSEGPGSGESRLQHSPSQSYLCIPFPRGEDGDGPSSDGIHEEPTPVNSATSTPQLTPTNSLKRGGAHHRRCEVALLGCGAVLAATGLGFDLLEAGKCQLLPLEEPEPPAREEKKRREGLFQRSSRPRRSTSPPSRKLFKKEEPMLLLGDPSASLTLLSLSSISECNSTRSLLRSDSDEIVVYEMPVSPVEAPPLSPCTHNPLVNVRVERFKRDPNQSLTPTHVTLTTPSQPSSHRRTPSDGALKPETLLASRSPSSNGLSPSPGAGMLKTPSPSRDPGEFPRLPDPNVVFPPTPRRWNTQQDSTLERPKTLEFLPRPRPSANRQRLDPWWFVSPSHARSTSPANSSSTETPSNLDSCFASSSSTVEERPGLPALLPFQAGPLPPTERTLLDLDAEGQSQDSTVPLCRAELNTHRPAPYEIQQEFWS
T2 sequence (P48729 whole entry): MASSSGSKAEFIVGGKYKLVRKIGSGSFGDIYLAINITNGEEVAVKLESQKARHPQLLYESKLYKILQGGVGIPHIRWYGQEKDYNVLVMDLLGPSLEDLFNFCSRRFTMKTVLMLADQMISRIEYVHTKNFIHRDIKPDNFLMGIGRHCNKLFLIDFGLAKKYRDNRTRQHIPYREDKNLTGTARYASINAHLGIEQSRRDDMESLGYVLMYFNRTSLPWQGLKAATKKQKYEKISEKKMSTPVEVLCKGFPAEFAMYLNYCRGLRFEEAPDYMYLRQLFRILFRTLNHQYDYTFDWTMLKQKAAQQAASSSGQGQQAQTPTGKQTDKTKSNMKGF
T3 sequence (P49761 whole entry): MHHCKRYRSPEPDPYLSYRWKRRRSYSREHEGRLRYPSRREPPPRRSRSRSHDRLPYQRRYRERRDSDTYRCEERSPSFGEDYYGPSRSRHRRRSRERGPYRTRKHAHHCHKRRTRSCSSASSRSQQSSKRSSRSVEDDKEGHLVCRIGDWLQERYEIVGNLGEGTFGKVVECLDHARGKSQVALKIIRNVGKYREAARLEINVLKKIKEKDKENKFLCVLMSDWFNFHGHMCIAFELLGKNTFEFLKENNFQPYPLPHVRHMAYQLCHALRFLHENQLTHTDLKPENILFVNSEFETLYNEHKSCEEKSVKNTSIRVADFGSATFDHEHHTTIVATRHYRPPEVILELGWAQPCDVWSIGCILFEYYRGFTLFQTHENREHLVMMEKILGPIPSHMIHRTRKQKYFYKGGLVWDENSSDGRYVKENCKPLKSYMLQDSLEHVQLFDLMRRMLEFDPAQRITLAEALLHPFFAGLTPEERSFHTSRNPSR

## COc1cc(C(=O)N2CCC(N3CCN(C)CC3)CC2)ccc1Nc1ncc2c(n1)N(C)c1ccccc1C(=O)N2C [15 (LRRK2-IN-1)]
[1]
  KINOMEscan: ABL1(F317L)-nonphosphorylated: 14
  KINOMEscan: ABL1(F317L)-phosphorylated: 0.85
[2]
  KINOMEscan: CSNK1A1: 100
[3]
  KINOMEscan: CLK3: 95
[4]
  KINOMEscan: MLK1: 93

## COc1cc(C(=O)N2CCC(N3CCN(C)CC3)CC2)ccc1Nc1ncc2c(n1)N1CCc3cccc(c31)C(=O)N2C [Compound 24]
[1]
  KINOMEscan: ABL1(F317L)-nonphosphorylated: 23
  KINOMEscan: ABL1(F317L)-phosphorylated: 7.8
[3]
  KINOMEscan: CLK3: 80
[4]
  KINOMEscan: MLK1: 85

## COc1cc(C(=O)N2CCC(N3CCN(C)CC3)CC2)ccc1Nc1ncc2c(n1)N(C1CCCC1)c1ccccc1C(=O)N2C [Compound 25, 11-cyclopentyl-2-((2-methoxy-4-(4-(4-methylpiperazin-1-yl)piperidine-1-carbonyl)phenyl)amino)-5-methyl-5H-benzo[e]pyrimido[5,4-b][1,4]diazepin-6(11H)-one]
[1]
  KINOMEscan: ABL1(F317L)-nonphosphorylated: 15
  KINOMEscan: ABL1(F317L)-phosphorylated: 9.1
[2]
  KINOMEscan: CSNK1A1: 100
[3]
  KINOMEscan: CLK3: 100
[4]
  KINOMEscan: MLK1: 100

## CCOc1cc(C(=O)N2CCC(N3CCN(C)CC3)CC2)ccc1Nc1ncc2c(n1)N(C1CCCC1)c1ccccc1C(=O)N2C [Compound 26]
[1]
  KINOMEscan: ABL1(F317L)-nonphosphorylated: 71
  KINOMEscan: ABL1(F317L)-phosphorylated: 34
[2]
  KINOMEscan: CSNK1A1: 100
[3]
  KINOMEscan: CLK3: 100
[4]
  KINOMEscan: MLK1: 100

From paper PMC3914206
